Reference: patent US6399319B1, “Protein kinase assay as a method for identification of fungicides” (Syngenta Crop Protection, Inc., priority 1996, dated 2002)

What was measured:
protein kinase PK-III = experiment: Protein kinase inhibition assay, PK-III fraction (protamine-sulfate, [γ-33P]ATP); type: biochemical, Neurospora crassa; settings: 100 μM in the enzyme assay mixture; protamine-sulfate as substrate; relative to DMSO control (=0% inhibition)
Experimental: (§1) Mycelium from a stock culture of the wild-type strain 74-OR8-1, obtained from the American Type Culture Collection (ATCC 18889), is grown as inoculum in Petri dishes (d=9 cm) at 24° C. in the dark for 14 days (medium: Biomalt 10 g, Difco dry yeast extract 4 g, glucose 4 g and agar 20 g, in 1 l water). […]
(§2) Protein kinase activity is assayed in a reaction mixture containing in a final volume of […], 20 mM Tris-HCl (pH 7.4), 20 mg protamine-sulfate, 10 mM Mg(NO3)2, 10 mM ATP (0.2 mCi [g-^33P]ATP), 1 mM NaN3, 0.04 mM okadaic acid, […] of protein kinase. After 20 minutes incubation at 32° C., aliquots of […] are analyzed for substrate phosphorylation using P81 chromatography paper (20 mm×20 mm; Whatman, Maidstone, UK) according to the method described by J. J. Witt and R. Roskoski (Anal. Biochem., 66, 253-258, 1975). After washing the unbounded radioactivity with 75 mM phosphoric acid (3×15 min) and ethanol 94% (1×5 min) the radioactivity in the chromatography paper is counted in 5 ml ULTIMA GOLD LSC-cocktail (Packard Instrument, Zürich, Switzerland) using a Tri-Carb 2500 TR Packard Instrument. […]

protein kinase PK-II = experiment: Protein kinase inhibition assay, PK-II fraction (protamine-sulfate, [γ-33P]ATP); type: biochemical, Neurospora crassa; settings: 100 μM in the enzyme assay mixture; protamine-sulfate as substrate; relative to DMSO control (=0% inhibition)
Experimental: as §1, §2

N#Cc1c[nH]cc1-c1cccc(Cl)c1Cl [fenpiclonil, 4-(2,3-dichlorophenyl)pyrrole-3-carbonitrile]
inhibition of protein kinase PK-III (protein kinase PK-III): 90%
inhibition of protein kinase PK-II (protein kinase PK-II): 67%
